Type in all cases: in vivo
For assay [1], the system named is Beet Armyworm (Spodoptera exigua) ("BAW"), second instar larvae. Put plainly: Bioassay on beet armyworm (BAW), 128-well diet tray assay. The following applies: Spodoptera exigua. The gist of the method:
(§1)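 Mortality (%) is scored well by well after five to seven days at 25° C. on a 14:10 light:dark regime. The value given is the mean of eight wells.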

Assay [2] relates to Cabbage Looper (Trichoplusia ni) ("CL"), second instar larvae. Description: Bioassay on cabbage looper (CL), 128-well diet tray assay. The following applies: Trichoplusia ni. The gist of the method: as §1
Assay [3] concerns Yellow Fever Mosquito "YFM" (Aedes aegypti), about 1 day-old larvae. Put plainly: Bioassay on yellow fever mosquito (YFM), 96-well plate larval assay. Particulars: for YFM rating: Table ABC, species YFM, mortality scored after 3 days, C = not tested, D = no activity noticed; for YFM (Biological Results, rating): Yellow Fever Mosquito (Aedes aegypti) larvae, scored on mortality after 3 days, C = Not Tested. How it is done:
Example C: Bioassays on Yellow Fever Mosquito “YFM” (Aedes aegypti)
Certain molecules disclosed in this document were tested against YFM using procedures described in the following paragraph. In the reporting of the results, the “YFM Rating Table” was used (See Table Section).
Master plates containing 400 μg of a molecule dissolved in 100 μL of dimethyl sulfoxide (DMSO) (equivalent to a 4000 ppm solution) are used. A master plate of assembled molecules contains 15 μL per well. To this plate, 135 μL of a 90:10 water:acetone mixture is added to each well. A robot (Biomek® NXP Laboratory Automation Workstation) is programmed to dispense 15 μL aspirations from the master plate into an empty 96-well shallow plate (“daughter” plate). There are 6 reps (“daughter” plates) created per master. The created daughter plates are then immediately infested with YFM larvae.
The day before plates are to be treated, mosquito eggs are placed in Millipore water containing liver powder to begin hatching (4 g. into 400 mL). After the daughter plates are created using the robot, they are infested with 220 μL of the liver powder/larval mosquito mixture (about 1 day-old larvae). After plates are infested with mosquito larvae, a non-evaporative lid is used to cover the plate to reduce drying. Plates are held at room temperature for 3 days prior to grading. After 3 days, each well is observed and scored based on mortality.

The test system of assay [4] is Green Peach Aphid ("GPA") (Myzus persicae), wingless adult and nymph stages. Put plainly: Bioassay on green peach aphid (GPA), foliar spray on infested cabbage seedlings. The following applies: Myzus persicae, foliar, 72 h. The gist of the method: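 Cabbage seedlings with 2-3 true leaves, infested one day earlier with 20-50 wingless adult and nymph GPA, sprayed to runoff on both leaf sides; solvent check held 20% acetone/methanol (1:1). Live aphids counted after three days at about 25° C; corrected % control = 100*(X−Y)/X versus solvent check.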

[5] abbreviates: read-out: BAW (Biological Results, rating).
[6] abbreviates: read-out: CL (Biological Results, rating).
The mark [7] stands for this setting: read-out: GPA (Biological Results, rating).

Where two headings read alike, the source gives them in different places.

The record followed here is US20230077362A1 (CORTEVA AGRISCIENCE LLC, priority 2019, published 2023).

As for `O=C(/N=C1\SCC(=O)N1c1ccccc1-c1ccccc1)Nc1ccc(-c2ncn(-c3ccc(OC(F)(F)F)cc3)n2)cc1F` [Compound J720, (Z)-1-(3-([1,1′-Biphenyl]-2-yl)-4-oxothiazolidin-2-ylidene)-3-(2-fluoro-4-(1-(4-(trifluoromethoxy)phenyl)-1H-1,2,4-triazol-3-yl)phenyl)urea], the pest or weed control at 50 µg/cm2 in assay [1] (read-out: BAW rating) and in assay [2] (read-out: CL rating) was 50 to 100% each time. Further, in assay [3], the YFM rating result is “A (80-100)”.

Consider `Cc1ccc(Cc2ccc(F)cc2)c(N2C(=O)CS/C2=N\C(=O)Nc2ccc(-c3ncn(-c4ccc(C(F)(F)F)cc4)n3)cc2F)c1` [Compound J673, (Z)-1-(2-Fluoro-4-(1-(4-(trifluoromethyl)phenyl)-1H-1,2,4-triazol-3-yl)phenyl)-3-(3-(2-(4-fluorobenzyl)-5-methylphenyl)-4-oxothiazolidin-2-ylidene)urea], for which the pest or weed control at 50 µg/cm2 in assay [1] (read-out: BAW rating) and in assay [2] (read-out: CL rating) was 50 to 100% throughout. Moreover, in assay [3], the YFM rating entry was “A (80-100)”.

In the case of `Cc1ccc(COCc2ccccc2)c(N2C(=O)CS/C2=N\C(=O)Nc2ccc(-c3ncn(-c4ccc(C(F)(F)F)cc4)n3)cc2F)c1` [Compound J747, (Z)-1-(3-(2-((Benzyloxy)methyl)-5-methylphenyl)-4-oxothiazolidin-2-ylidene)-3-(2-fluoro-4-(1-(4-(trifluoromethyl)phenyl)-1H-1,2,4-triazol-3-yl)phenyl)urea], the pest or weed control at 50 µg/cm2 in assay [1] (read-out: BAW rating) and in assay [2] (read-out: CL rating) was 50 to 100% each time. For the same compound, the pest or weed control at 200 µg/mL in assay [4] (read-out: GPA rating) fell in the range of 0 to 80%. Further, the YFM rating entry in assay [3] is listed as “A (80-100)”.

With `Cc1ccc(COCc2cc3c(C(F)(F)F)nn(C)c3s2)c(N2C(=O)CS/C2=N\C(=O)Nc2ccc(-c3ncn(-c4ccc(OC(F)(F)F)cc4)n3)cc2F)c1` [Compound J712, (Z)-1-(2-Fluoro-4-(1-(4-(trifluoromethoxy)phenyl)-1H-1,2,4-triazol-3-yl)phenyl)-3-(3-(5-methyl-2-(((1-methyl-3-(trifluoromethyl)-1H-thieno[2,3-c]pyrazol-5-yl)methoxy)methyl)phenyl)-4-oxothiazolidin-2-ylidene)urea], the pest or weed control at 50 µg/cm2 in assay [1] (read-out: BAW rating) and in assay [2] (read-out: CL rating) was 50 to 100% in each case. Moreover, in assay [3], the YFM rating entry was “A (80-100)”.

Consider `Cc1ccc(COCC(F)(F)F)c(N2C(=O)CS/C2=N\C(=O)Nc2ccc(-c3ncn(-c4ccnc(OCC(F)(F)F)c4)n3)cc2F)c1` [Compound J750, (Z)-1-(2-Fluoro-4-(1-(2-(2,2,2-trifluoroethoxy)pyridin-4-yl)-1H-1,2,4-triazol-3-yl)phenyl)-3-(3-(5-methyl-2-((2,2,2-trifluoroethoxy)methyl)phenyl)-4-oxothiazolidin-2-ylidene)urea], for which the pest or weed control at 50 µg/cm2 in assay [1] (read-out: BAW rating) and in assay [2] (read-out: CL rating) was 50 to 100% each time. Moreover, in assay [3], the YFM rating result is recorded as “A (80-100)”.

Consider `Cc1ccc(C(F)(F)F)c(N2C(=O)CS/C2=N\C(=O)N[C@H](C)Cc2ccc(-c3ncn(-c4ccc(OC(F)(F)F)cc4)n3)cc2)c1` [Compound H3], for which the pest or weed control at 50 µg/cm2 in assay [1] (setting [5]) and in assay [2] (setting [6]) was 50 to 100% throughout. In assay [4] (setting [7]), the pest or weed control at 200 µg/mL is 80 to 100%. The “YFM (Biological Results, rating)” value in assay [3] was “A (80-100)”.

`Cc1cc(-c2ncn(-c3ccc(OC(F)(F)F)cc3)n2)ccc1NC(=O)/N=C1\SCC(=O)N1c1ccccc1COCC(F)(F)F` [Compound J653, (Z)-1-(2-Methyl-4-(1-(4-(trifluoromethoxy)phenyl)-1H-1,2,4-triazol-3-yl)phenyl)-3-(4-oxo-3-(2-((2,2,2-trifluoroethoxy)methyl)phenyl)thiazolidin-2-ylidene)urea]: the pest or weed control at 50 µg/cm2 in assay [1] (read-out: BAW rating) and in assay [2] (read-out: CL rating) was 50 to 100% in each case. Further, in assay [4] (read-out: GPA rating), the pest or weed control at 200 µg/mL lay in the range of 0 to 80%. Also, the YFM rating entry in assay [3] is recorded as “A (80-100)”.

As to `Cc1ccc(COCc2ccccc2OC(F)(F)F)c(N2C(=O)CS/C2=N\C(=O)Nc2ccc(-c3ncn(-c4ccc(C(F)(F)F)cc4)n3)cc2F)c1` [Compound J746, (Z)-1-(2-Fluoro-4-(1-(4-(trifluoromethyl)phenyl)-1H-1,2,4-triazol-3-yl)phenyl)-3-(3-(5-methyl-2-(((2-(trifluoromethoxy)benzyl)oxy)methyl)phenyl)-4-oxothiazolidin-2-ylidene)urea], the pest or weed control at 50 µg/cm2 in assay [1] (read-out: BAW rating) lay in the range of 50 to 100%. Moreover, the YFM rating entry in assay [3] is given as “A (80-100)”.

As for `Cc1ccc(COCc2ccccc2Cl)c(N2C(=O)CS/C2=N\C(=O)Nc2ccc(-c3ncn(-c4ccc(OC(F)(F)F)cc4)n3)cc2F)c1` [Compound J572, (Z)-1-(3-(2-(((2-Chlorobenzyl)oxy)methyl)-5-methylphenyl)-4-oxothiazolidin-2-ylidene)-3-(2-fluoro-4-(1-(4-(trifluoromethoxy)phenyl)-1H-1,2,4-triazol-3-yl)phenyl)urea], the pest or weed control at 50 µg/cm2 in assay [1] (read-out: BAW rating) and in assay [2] (read-out: CL rating) was 50 to 100% throughout. The YFM rating entry in assay [3] is listed as “A (80-100)”.

On to `Cc1ccc([N+](=O)[O-])c(N2C(=O)CS/C2=N\C(=O)Nc2ccc(-c3ncn(-c4ccc(OC(F)(F)F)cc4)n3)cc2)c1` [Compound J313, (Z)-1-(3-(5-Methyl-2-nitrophenyl)-4-oxothiazolidin-2-ylidene)-3-(4-(1-(4-(trifluoromethoxy)phenyl)-1H-1,2,4-triazol-3-yl)phenyl)urea], for which the pest or weed control at 50 µg/cm2 in assay [1] (setting [5]) and in assay [2] (setting [6]) was 50 to 100% each time. Besides, the “YFM (Biological Results, rating)” value in assay [3] is reported as “B (More than 0-Less than 80)”.

Regarding `CC(F)(F)c1ccccc1N1C(=O)CS/C1=N\C(=O)NCCc1ccc(-c2ncn(-c3ccc(OC(F)(F)F)cc3)n2)cc1` [Compound H21], the pest or weed control at 50 µg/cm2 in assay [1] (setting [5]) and in assay [2] (setting [6]) was 50 to 100% throughout. The pest or weed control at 200 µg/mL in assay [4] (setting [7]) was in the range of 0 to 80%. In assay [3], the “YFM (Biological Results, rating)” value was “A (80-100)”.

Take `Cc1ccc(Cc2ccccc2F)c(N2C(=O)CS/C2=N\C(=O)Nc2ccc(-c3ncn(-c4ccc(C(F)(F)F)cc4)n3)cc2F)c1` [Compound J708, (Z)-1-(2-Fluoro-4-(1-(4-(trifluoromethyl)phenyl)-1H-1,2,4-triazol-3-yl)phenyl)-3-(3-(2-(2-fluorobenzyl)-5-methylphenyl)-4-oxothiazolidin-2-ylidene)urea]: the pest or weed control at 50 µg/cm2 in assay [1] (read-out: BAW rating) and in assay [2] (read-out: CL rating) was 50 to 100% in each case. Moreover, the YFM rating result in assay [3] is recorded as “A (80-100)”.

Turning to `O=C(/N=C1\SCC(=O)N1c1cc(C(F)(F)F)ccc1COCc1ccccc1)Nc1ccc(-c2ncn(-c3ccc(OC(F)(F)F)cc3)n2)cc1F` [Compound J741, (Z)-1-(3-(2-((Benzyloxy)methyl)-5-(trifluoromethyl)phenyl)-4-oxothiazolidin-2-ylidene)-3-(2-fluoro-4-(1-(4-(trifluoromethoxy)phenyl)-1H-1,2,4-triazol-3-yl)phenyl)urea], in assay [3], the YFM rating entry is given as “A (80-100)”.

On to `Cc1ccc(Cc2cccc(F)c2)c(N2C(=O)CS/C2=N\C(=O)Nc2ccc(-c3ncn(-c4ccc(C(F)(F)F)cc4)n3)cc2F)c1` [Compound J675, (Z)-1-(2-Fluoro-4-(1-(4-(trifluoromethyl)phenyl)-1H-1,2,4-triazol-3-yl)phenyl)-3-(3-(2-(3-fluorobenzyl)-5-methylphenyl)-4-oxothiazolidin-2-ylidene)urea], for which the pest or weed control at 50 µg/cm2 in assay [1] (read-out: BAW rating) and in assay [2] (read-out: CL rating) was 50 to 100% in each case. The YFM rating result in assay [3] was “A (80-100)”.

On to `Cc1cc(N2C(=O)CS/C2=N\C(=O)Nc2ccc(-c3ncn(-c4ccc(OC(F)(F)F)cc4)n3)cc2F)c(C)cc1F` [Compound J714, (Z)-1-(3-(4-Fluoro-2,5-dimethylphenyl)-4-oxothiazolidin-2-ylidene)-3-(2-fluoro-4-(1-(4-(trifluoromethoxy)phenyl)-1H-1,2,4-triazol-3-yl)phenyl)urea], for which the pest or weed control at 50 µg/cm2 in assay [1] (read-out: BAW rating) and in assay [2] (read-out: CL rating) was 50 to 100% each time. In addition, in assay [3], the YFM rating entry is “A (80-100)”.

Consider `Cc1ccc(COCc2cc(C(F)(F)F)cc(C(F)(F)F)c2)c(N2C(=O)CS/C2=N\C(=O)Nc2ccc(-c3ncn(-c4ccc(C(F)(F)F)cc4)n3)cc2F)c1` [Compound J748, (Z)-1-(3-(2-(((3,5-Bis(trifluoromethyl)benzyl)oxy)methyl)-5-methylphenyl)-4-oxothiazolidin-2-ylidene)-3-(2-fluoro-4-(1-(4-(trifluoromethyl)phenyl)-1H-1,2,4-triazol-3-yl)phenyl)urea], for which the YFM rating entry in assay [3] is “A (80-100)”.
